According to the NIST ThermoML archive (doi:10.1016/j.jct.2007.11.013):
± gives the expanded uncertainty stated by the source.

Experiment: xn = mol fraction of the nth substance listed
Settings: Liquid, Bellows volumetry

CC(C)C [2-methylpropane] + CCCC
mass density [kg/m3]
Settings	280 K	320 K	360 K	400 K	440 K
1000 kPa, x2 = 0.2656	580.73 ± 0.53	530.15 ± 0.51	–	–	–
1000 kPa, x2 = 0.4913	585.41 ± 0.53	535.84 ± 0.49	–	–	–
1000 kPa, x2 = 0.7508	589.56 ± 0.54	541.44 ± 0.5	–	–	–
2000 kPa, x2 = 0.2656	582.43 ± 0.53	532.88 ± 0.51	469.97 ± 0.44	–	–
2000 kPa, x2 = 0.4913	586.92 ± 0.53	538.41 ± 0.49	478.17 ± 0.46	–	–
2000 kPa, x2 = 0.7508	590.9 ± 0.54	543.79 ± 0.49	–	–	–
3000 kPa, x2 = 0.2656	583.92 ± 0.53	535.39 ± 0.51	475.52 ± 0.48	–	–
3000 kPa, x2 = 0.4913	588.36 ± 0.53	540.81 ± 0.5	483.1 ± 0.46	385.11 ± 0.4	–
3000 kPa, x2 = 0.7508	592.32 ± 0.54	546.12 ± 0.49	490.53 ± 0.45	402.2 ± 0.47	–
5000 kPa, x2 = 0.2656	587.09 ± 0.53	540.14 ± 0.51	484.88 ± 0.5	406.75 ± 0.4	–
5000 kPa, x2 = 0.4913	591.12 ± 0.54	545.4 ± 0.5	491.8 ± 0.46	417.26 ± 0.42	–
5000 kPa, x2 = 0.7508	594.99 ± 0.54	550.35 ± 0.5	498.56 ± 0.45	427.6 ± 0.4	–
10000 kPa, x2 = 0.2656	593.89 ± 0.54	550.53 ± 0.51	502.82 ± 0.49	446.63 ± 0.5	376.07 ± 0.38
10000 kPa, x2 = 0.4913	597.45 ± 0.54	555.38 ± 0.51	508.78 ± 0.47	453.53 ± 0.43	384.46 ± 0.38
10000 kPa, x2 = 0.7508	601.36 ± 0.54	559.85 ± 0.51	514.37 ± 0.47	460.33 ± 0.42	393.12 ± 0.38
20000 kPa, x2 = 0.2656	605.71 ± 0.55	567.26 ± 0.52	527.7 ± 0.49	485.47 ± 0.47	441.9 ± 0.51
20000 kPa, x2 = 0.4913	608.98 ± 0.55	571.45 ± 0.52	532.51 ± 0.49	490.78 ± 0.45	447.31 ± 0.42
20000 kPa, x2 = 0.7508	612.32 ± 0.55	575.19 ± 0.52	537.18 ± 0.49	495.66 ± 0.45	452.37 ± 0.42
30000 kPa, x2 = 0.2656	615.41 ± 0.56	580.65 ± 0.53	545.48 ± 0.5	509.52 ± 0.47	474.54 ± 0.46
30000 kPa, x2 = 0.4913	618.89 ± 0.56	584.41 ± 0.53	549.98 ± 0.5	514.15 ± 0.47	479.02 ± 0.44
30000 kPa, x2 = 0.7508	621.81 ± 0.56	587.77 ± 0.53	554.09 ± 0.5	518.42 ± 0.47	483.18 ± 0.44
40000 kPa, x2 = 0.2656	624.41 ± 0.57	591.82 ± 0.54	559.82 ± 0.51	527.48 ± 0.49	497.07 ± 0.46
40000 kPa, x2 = 0.4913	627.45 ± 0.57	595.5 ± 0.54	563.9 ± 0.51	531.91 ± 0.49	501.25 ± 0.46
40000 kPa, x2 = 0.7508	630.16 ± 0.57	598.52 ± 0.54	567.64 ± 0.51	535.63 ± 0.49	504.89 ± 0.46
50000 kPa, x2 = 0.2656	632.48 ± 0.57	601.55 ± 0.55	571.85 ± 0.52	542.19 ± 0.5	514.8 ± 0.48
50000 kPa, x2 = 0.4913	635.21 ± 0.57	605.01 ± 0.55	575.77 ± 0.52	546.27 ± 0.5	518.55 ± 0.47
50000 kPa, x2 = 0.7508	637.79 ± 0.58	607.82 ± 0.55	579.14 ± 0.52	549.67 ± 0.5	521.88 ± 0.47
60000 kPa, x2 = 0.2656	639.66 ± 0.58	610.3 ± 0.56	582.32 ± 0.53	554.58 ± 0.51	529.25 ± 0.49
60000 kPa, x2 = 0.4913	642.4 ± 0.58	613.74 ± 0.56	586.24 ± 0.53	558.4 ± 0.51	532.82 ± 0.49
60000 kPa, x2 = 0.7508	644.7 ± 0.58	616.38 ± 0.56	589.35 ± 0.54	561.67 ± 0.51	535.99 ± 0.49
70000 kPa, x2 = 0.2656	646.31 ± 0.59	618.47 ± 0.56	591.65 ± 0.54	565.35 ± 0.52	541.79 ± 0.5
70000 kPa, x2 = 0.4913	648.87 ± 0.59	621.47 ± 0.56	595.42 ± 0.54	569.18 ± 0.52	545.18 ± 0.5
70000 kPa, x2 = 0.7508	650.96 ± 0.59	623.97 ± 0.57	598.27 ± 0.54	572.18 ± 0.52	548.23 ± 0.5
80000 kPa, x2 = 0.2656	652.53 ± 0.59	625.51 ± 0.57	599.96 ± 0.55	575 ± 0.53	552.55 ± 0.51
80000 kPa, x2 = 0.4913	654.98 ± 0.59	628.69 ± 0.57	603.53 ± 0.55	578.67 ± 0.53	556.07 ± 0.51
80000 kPa, x2 = 0.7508	656.95 ± 0.59	631.01 ± 0.57	606.56 ± 0.55	581.7 ± 0.53	558.93 ± 0.51
90000 kPa, x2 = 0.2656	658.15 ± 0.6	632.18 ± 0.57	607.66 ± 0.56	583.7 ± 0.53	562.49 ± 0.52
90000 kPa, x2 = 0.4913	660.76 ± 0.6	635.21 ± 0.58	611.18 ± 0.56	587.47 ± 0.54	565.64 ± 0.52
90000 kPa, x2 = 0.7508	662.63 ± 0.6	637.49 ± 0.58	613.96 ± 0.56	590.11 ± 0.54	568.41 ± 0.52
100000 kPa, x2 = 0.2656	663.68 ± 0.6	638.57 ± 0.58	614.79 ± 0.56	591.48 ± 0.54	571.02 ± 0.53
100000 kPa, x2 = 0.4913	666.14 ± 0.6	641.34 ± 0.58	618.14 ± 0.56	595.11 ± 0.54	574.54 ± 0.53
100000 kPa, x2 = 0.7508	667.99 ± 0.6	643.48 ± 0.58	620.9 ± 0.56	598.02 ± 0.55	577.23 ± 0.53
120000 kPa, x2 = 0.2656	673.84 ± 0.88	649.73 ± 0.59	627.56 ± 0.57	605.85 ± 0.55	586.73 ± 1.3
120000 kPa, x2 = 0.4913	675.91 ± 0.88	652.68 ± 0.59	630.84 ± 0.57	609.08 ± 0.56	590.02 ± 1.3
120000 kPa, x2 = 0.7508	677.69 ± 0.88	654.79 ± 0.59	633.4 ± 0.58	611.77 ± 0.56	592.51 ± 1.3
140000 kPa, x2 = 0.2656	682.73 ± 0.89	660.13 ± 0.6	638.86 ± 0.58	618.11 ± 0.57	600.22 ± 1.3
140000 kPa, x2 = 0.4913	685.03 ± 0.89	662.76 ± 0.6	642.02 ± 0.58	621.57 ± 0.57	603.26 ± 1.3
140000 kPa, x2 = 0.7508	686.69 ± 0.9	664.53 ± 0.6	644.56 ± 0.59	623.93 ± 0.57	605.8 ± 1.3
160000 kPa, x2 = 0.2656	691.28 ± 0.91	669.26 ± 0.62	649.01 ± 0.61	628.97 ± 0.59	612.2 ± 1.4
160000 kPa, x2 = 0.4913	693.26 ± 0.91	672 ± 0.62	652.16 ± 0.61	632.55 ± 0.6	615.27 ± 1.4
160000 kPa, x2 = 0.7508	694.86 ± 0.91	673.62 ± 0.62	654.38 ± 0.61	634.89 ± 0.6	617.59 ± 1.4
180000 kPa, x2 = 0.2656	699.06 ± 0.92	677.76 ± 0.63	658.15 ± 0.62	639.19 ± 0.6	622.95 ± 1.4
180000 kPa, x2 = 0.4913	700.72 ± 0.92	680.38 ± 0.63	661.25 ± 0.62	642.45 ± 0.6	625.93 ± 1.4
180000 kPa, x2 = 0.7508	702.34 ± 0.92	681.89 ± 0.63	663.57 ± 0.62	644.7 ± 0.61	628.15 ± 1.4
200000 kPa, x2 = 0.2656	706.05 ± 0.93	685.47 ± 0.64	666.71 ± 0.63	648.34 ± 0.62	632.67 ± 1.4
200000 kPa, x2 = 0.4913	708 ± 0.93	687.99 ± 0.64	669.76 ± 0.63	651.4 ± 0.62	635.69 ± 1.4
200000 kPa, x2 = 0.7508	709.43 ± 0.93	689.51 ± 0.64	672.02 ± 0.63	653.9 ± 0.62	637.8 ± 1.4
